Measurements published in the supplement of paper PMC10307832.

Each cell line was assayed with CC1(C)CCC(CN2CCN(c3ccc(C(=O)NS(=O)(=O)c4ccc(NCC5CCOCC5)c([N+](=O)[O-])c4)c(Oc4cnc5[nH]ccc5c4)c3)CC2)=C(c2ccc(Cl)cc2)C1 [Venetoclax] + O=C(CCCCCCC(=O)Nc1ccccc1)NO [Vorinostat] (partner 1 µM) (assay: relative viability (nuclei count vs DMSO), 5 days (fraction); higher = more cells survive). Details: first compound 0.01 µM.
Outline: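 Relative viability was taken as the ratio of nuclei in treated wells to nuclei in vehicle wells. Lung cancer cell lines in 1536-well plates received compounds by pin tool one day after seeding, either one drug alone or a fixed anchor-drug dose plus five library-drug doses (not always all listed) in √10 steps. Nuclei were counted on 4× images after 5 days of treatment, and values are medians of duplicate plates.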
NCI-H520 was tested, and the relative viability was 0.761.
In the case of NCI-H838, the relative viability is reported as 0.699.
With NCI-H596 the relative viability was 0.649.
Cell Line NCI-H3122 has a relative viability of 1.11.
NCI-H1395 showed a relative viability of 0.7.
In the case of 201T, the relative viability is reported as 0.858.
NCI-H1993 was tested, and the relative viability was 0.747.
With HOP-62 the relative viability was 0.578.
Cell Line NCI-H1355 has a relative viability of 0.626.
For NCI-H2405, the relative viability was 0.944.
Work on NCI-H1437 yielded a relative viability of 0.8.
For NCI-H661, the relative viability was 0.741.
For CAL-12T, the relative viability was 0.684.
Cell Line H3255 has a relative viability of 0.782.
Work on NCI-H2347 yielded a relative viability of 0.574.
NCI-H1975 was tested, and the relative viability was 0.692.
Work on NCI-H441 yielded a relative viability of 0.78.
NCI-H1650 gave a relative viability of 0.618.
Work on NCI-H1915 yielded a relative viability of 0.49.
NCI-H2087 was tested, and the relative viability was 0.606.
With NCI-H1793 the relative viability was 0.685.
RERF-LC-KJ was tested, and the relative viability was 0.587.
With EKVX the relative viability was 0.618.
For LCLC-103H, the relative viability was 0.866.
NCI-H1651 was tested, and the relative viability was 0.566.
NCI-H1944 showed a relative viability of 0.606.

Same assay, conditions: first compound 0.03162 µM
BEN was tested, and the relative viability was 0.603.
Cell Line HCC-15 has a relative viability of 0.799.
HCC-827 showed a relative viability of 0.958.
Work on NCI-H460 yielded a relative viability of 0.684.
LU99A showed a relative viability of 0.703.
For NCI-H2085, the relative viability was 0.807.
A-427 gave a relative viability of 0.863.
With NCI-H520 the relative viability was 0.75.
For NCI-H838, the relative viability was 0.72.
NCI-H596 was tested, and the relative viability was 0.626.
In the case of NCI-H3122, the relative viability is reported as 0.881.
For NCI-H1395, the relative viability was 0.838.
Work on 201T yielded a relative viability of 1.02.
NCI-H1993 showed a relative viability of 1.
HOP-62 showed a relative viability of 0.572.
NCI-H1355 showed a relative viability of 0.618.
Cell Line NCI-H2405 has a relative viability of 1.27.
For NCI-H1437, the relative viability was 0.888.
NCI-H661 gave a relative viability of 0.804.
For CAL-12T, the relative viability was 0.782.
In the case of H3255, the relative viability is reported as 0.899.
NCI-H2347 showed a relative viability of 0.753.
Cell Line NCI-H1975 has a relative viability of 0.678.
Work on NCI-H441 yielded a relative viability of 0.762.
Work on NCI-H1650 yielded a relative viability of 0.606.
With NCI-H1915 the relative viability was 0.533.
In the case of NCI-H2087, the relative viability is reported as 0.824.
For NCI-H1793, the relative viability was 0.958.
RERF-LC-KJ was tested, and the relative viability was 0.701.
With EKVX the relative viability was 0.838.
Work on LCLC-103H yielded a relative viability of 0.92.
Work on NCI-H1651 yielded a relative viability of 0.585.
In the case of NCI-H1944, the relative viability is reported as 0.586.

Same assay, conditions: first compound 0.1 µM
Work on BEN yielded a relative viability of 0.494.
Work on HCC-15 yielded a relative viability of 0.812.
Work on HCC-827 yielded a relative viability of 0.83.
NCI-H460 gave a relative viability of 0.653.
With LU99A the relative viability was 0.416.
In the case of NCI-H2085, the relative viability is reported as 0.795.
A-427 showed a relative viability of 0.857.
Cell Line NCI-H838 has a relative viability of 0.709.
For NCI-H596, the relative viability was 0.587.
With NCI-H3122 the relative viability was 0.802.
For NCI-H1395, the relative viability was 0.673.
201T showed a relative viability of 0.917.
With NCI-H1993 the relative viability was 0.714.
HOP-62 showed a relative viability of 0.552.
In the case of NCI-H1355, the relative viability is reported as 0.625.
Cell Line NCI-H2405 has a relative viability of 1.03.
Work on NCI-H1437 yielded a relative viability of 0.808.
NCI-H661 showed a relative viability of 0.692.
CAL-12T showed a relative viability of 0.683.
H3255 was tested, and the relative viability was 0.897.
With NCI-H2347 the relative viability was 0.461.
In the case of NCI-H1975, the relative viability is reported as 0.743.
With NCI-H441 the relative viability was 1.02.
NCI-H1650 showed a relative viability of 0.567.
For NCI-H1915, the relative viability was 0.478.
NCI-H2087 was tested, and the relative viability was 0.881.
Work on NCI-H1793 yielded a relative viability of 0.703.
RERF-LC-KJ showed a relative viability of 0.682.
For EKVX, the relative viability was 0.602.
Cell Line LCLC-103H has a relative viability of 0.648.
NCI-H1651 gave a relative viability of 0.577.
Work on NCI-H1944 yielded a relative viability of 0.442.

Same assay, conditions: first compound 0.3162 µM
With BEN the relative viability was 0.556.
For HCC-15, the relative viability was 0.841.
Cell Line HCC-827 has a relative viability of 0.892.
For NCI-H460, the relative viability was 0.739.
LU99A was tested, and the relative viability was 0.521.
Work on NCI-H2085 yielded a relative viability of 0.817.
A-427 gave a relative viability of 0.849.
NCI-H520 was tested, and the relative viability was 0.668.
NCI-H838 was tested, and the relative viability was 0.769.
NCI-H596 showed a relative viability of 0.568.
NCI-H3122 gave a relative viability of 0.916.
Work on NCI-H1395 yielded a relative viability of 0.907.
201T gave a relative viability of 0.975.
With NCI-H1993 the relative viability was 0.728.
HOP-62 gave a relative viability of 0.667.
Work on NCI-H1355 yielded a relative viability of 0.692.
In the case of NCI-H2405, the relative viability is reported as 1.07.
With NCI-H1437 the relative viability was 0.709.
Work on NCI-H661 yielded a relative viability of 0.893.
CAL-12T showed a relative viability of 0.865.
Work on H3255 yielded a relative viability of 0.777.
With NCI-H2347 the relative viability was 0.593.
NCI-H1975 gave a relative viability of 0.688.
In the case of NCI-H441, the relative viability is reported as 0.868.
For NCI-H1650, the relative viability was 0.553.
With NCI-H1915 the relative viability was 0.54.
With NCI-H2087 the relative viability was 0.799.
NCI-H1793 was tested, and the relative viability was 0.801.
With RERF-LC-KJ the relative viability was 0.686.
EKVX showed a relative viability of 0.771.
With LCLC-103H the relative viability was 0.825.
Cell Line NCI-H1651 has a relative viability of 0.497.
Work on NCI-H1944 yielded a relative viability of 0.608.

Same assay, conditions: first compound 1 µM
With BEN the relative viability was 0.523.
HCC-15 showed a relative viability of 0.853.
With HCC-827 the relative viability was 0.755.
With NCI-H460 the relative viability was 0.6.
Cell Line LU99A has a relative viability of 0.552.
NCI-H2085 gave a relative viability of 0.765.
In the case of A-427, the relative viability is reported as 0.879.
Cell Line NCI-H520 has a relative viability of 0.733.
NCI-H838 gave a relative viability of 0.719.
Work on NCI-H596 yielded a relative viability of 0.714.
Cell Line NCI-H3122 has a relative viability of 0.885.
In the case of NCI-H1395, the relative viability is reported as 0.896.
For 201T, the relative viability was 0.947.
Work on NCI-H1993 yielded a relative viability of 0.615.
Work on HOP-62 yielded a relative viability of 0.568.
NCI-H1355 was tested, and the relative viability was 0.577.
NCI-H2405 was tested, and the relative viability was 0.889.
NCI-H1437 was tested, and the relative viability was 0.788.
NCI-H661 gave a relative viability of 0.722.
CAL-12T showed a relative viability of 0.56.
Cell Line H3255 has a relative viability of 0.733.
NCI-H2347 gave a relative viability of 0.591.
Cell Line NCI-H1975 has a relative viability of 0.72.
NCI-H441 was tested, and the relative viability was 0.743.
NCI-H1650 was tested, and the relative viability was 0.527.
NCI-H1915 showed a relative viability of 0.512.
For NCI-H2087, the relative viability was 0.953.
NCI-H1793 gave a relative viability of 0.623.
RERF-LC-KJ was tested, and the relative viability was 0.718.
For EKVX, the relative viability was 0.592.
In the case of LCLC-103H, the relative viability is reported as 0.737.
With NCI-H1651 the relative viability was 0.599.
NCI-H1944 was tested, and the relative viability was 0.498.
